Results published in patent US12589099B2 (priority 2021, dated 2026).

How the values were obtained:
pathological p-Tau (AT8) = assay: p-Tau (AT8) immunostaining 35 days post-TBI; format: in vivo, male Wistar rats; settings: 4.5 mg/kg IN twice daily, cortex, DG, CA3, CA1 of ipsilateral hemisphere
Source text: (§1) Young adult (2-3 months) male Wistar rats were subjected to a moderate traumatic brain injury (TBI) induced by controlled cortical impact (CCI). Animal models of TBI including the CCI model and functional tests have been described in detail in peer reviewed publications (Xiong et al., 2013, Nat Rev Neurosci.; Zhang et al., 2016, J Neurosurg.; Zhang et al., 2016, Neurochem Int.; Zhang et al., 2021, J Neurotrauma). Injury consisted of a single impact at 4.0 m/sec, 2.5 mm deformation to the left parietal cortex. In addition, a group of animals was left healthy/not injured to serve as a healthy control.
The substance used in this study was ALPHA-1062 at 4.5 mg/kg. […]
(§2) Histological assessment was performed including quantitative image analysis protocols; followed by statistical analysis of the data. […]
For cell counting and quantitation NeuN+ cells were examined in the ipsilateral cortex, DG, CA1, and CA3 regions of the ipsilateral hippocampus. […] The number of BrdU+ cells (red-fluorophore) and NeuN (green-fluorophore)/BrdU-colabeled cells (yellow after merge) were counted. […] The immune-positive cells were determined and divided by the measured areas and presented as numbers per square mm. […] Tau or p-Tau immunoreactive areas including cortex, dentate gyrus, CA3 and CA1 regions of the ipsilateral hemisphere were imaged and quantified by Image J software (NIH).

[1] = tested on: NeuN positive cells in DG, CA1, CA3 and cortex; assay: NeuN IHC, neuronal cell loss 35 days post-TBI; format: in vivo, male Wistar rats; settings: 4.5 mg/kg IN twice daily; 35 days following TBI
Source text: as §1
The substance used in this study was ALPHA-1062 at 4.5 mg/kg. As control treatment (vehicle) purified water was administered intranasally (IN). […]
as §2
For cell counting and quantitation NeuN+ cells were examined in the ipsilateral cortex, DG, CA1, and CA3 regions of the ipsilateral hippocampus. […] The number of BrdU+ cells (red-fluorophore) and NeuN (green-fluorophore)/BrdU-colabeled cells (yellow after merge) were counted. […] The immune-positive cells were determined and divided by the measured areas and presented as numbers per square mm. […]

**Q.** Which “levels of p-Tau compared to vehicle controls” value (pathological p-Tau (AT8)) does the source give for `COc1ccc2c3c1O[C@H]1C[C@@H](OC(=O)c4ccccc4)C=C[C@@]31CCN(C)C2` [ALPHA-1062, (4aS,6R,8aS)-5,6,9,10,11,12-hexahydro-3-methoxy-11-methyl-4aH-[1]benzofuro[3a,3,2-ef][2]benzazepin-6-ol benzoate] here?
**A.** significantly reduced levels of p-Tau

**Q.** What about the “neuron numbers (NeuN) in DG, CA1, CA3 and cortex, compared to vehicle” value [1] of the same compound?
**A.** reduced loss of neurons

**Q.** What about the “neuronal cell numbers (NeuN) compared to sham surgery animals” value [1] of the same compound?
**A.** did not differ significantly
